Experimental data from US20250049680A1, “COMPOSITIONS AND METHODS FOR TREATING DENTIN CARIES” (Rutgers, The State University of New Jersey, priority 2023, published 2025).
Entries after “also recorded” stand apart in the source; their conditions may differ. Marks after values point to notes of the source that are not given here.

Experiments:
[1] = pH cycling model of artificial dentin caries; set-up: species or system human; details: in words
Procedure: (§1) Fortified dentin specimens were subjected to a pH cycling procedure with repeated sequences of de/remineralization. Artificial caries were formed in the dentin specimens by a 1-hour immersion in 2.5 mL of demineralizing solution (1.5 mM CaCl2), 0.9 mM KH2PO4, 50 mM acetate buffer, pH 4.8). All lesions were then immersed in 2.5 mL of remineralizing solution (1.5 mM CaCl2, 0.9 mM KH2PO4, 20 mM HEPES [4-(2-hydroxyethyl)-1-piperazineethanesulfonic acid], pH 7.0) for 23 hours. During each solution change, the specimens were rinsed with deionized water for 10 seconds. The pH cycling process was performed at 37 degrees Celsius for three days.

[2] = Surface microhardness of fortified dentin specimens after pH cycling; set-up: species or system human; details: for microhardness, rank among all the groups: in words
Procedure: (§2) The column was further developed with 150 mL of one of five metal chloride solutions (0.1 mol/L AA2P salts of Mg, Zn, Mn, Sr, and Ba) to obtain a fraction containing new cationic L-ascorbic acid 2 phosphates with Mg, Zn, Mn, Sr, or Ba (FIG. 2). The prepared dentin specimens were randomly divided into six groups according to the solution used. The canal of each section was covered with an adhesive wax at the lower surface of the dentin specimen. Dentin specimens were then irrigated with one of five intervening solutions (AA2P salts of Mg (0.18 mM), Zn (5.3 μM), Mn (2.2×10^-8 M), Sr (1.8 μM), and Ba (1.9 μM)) for five minutes, with the saline solution used as the control group. The root canals were then flushed with 10 mL of distilled water immediately after each treatment to remove excess solution.
as §1
A Micro Met 5100 durometer microhardness tester was used to measure the hardness of the fortified dentin specimens after exposure to a caries inducing environment. Each dentin specimen was further divided into two sections. Three separate indentations were made in each section at depths of 100 μm and 500 μm from the pulp-dentin interface using a 300-g load with a dwell time of 20 seconds for each measurement. The indentations were then evaluated under an optical microscope, and the average length of their two diagonal lengths was used to determine the hardness. The average microhardness value of the indentations' results was considered representative of each depth in each specimen.

[3] = Solubility evaluation: weight loss of fortified dentin in butyric acid; set-up: species or system human; details: for Solubility (weight loss): 0.1 M butyric acid pH 4.4, 24 h, 37 C, mean ± SD; for weight loss: pilot study, mean and standard deviation
Procedure: as §2, with “solution. […]” for “solution.”
Fortified dentin specimens were completely immersed in 30 ml of 0.1 M butyric acid buffered with synthetic tissue fluid (pH 4.4) for 24 hours at 37 degrees C. and 100% relative humidity. After incubation, the specimens were removed from the acidic solutions, rinsed with distilled water to remove any residual acid, and dried. The weight of the dentin slices was measured by a digital microbalance before and after immersion into butyric acid, and the difference in weight provided information on dentin solubility.

[4] = Diametral tensile strength (DTS) of fortified dentin specimens after pH cycling; set-up: species or system human; details: for Diametral tensile strength: 5 min irrigation, 3-day pH cycling, mean ± SD; for DTS compared with the control group: in words; for DTS: pilot study, mean and standard deviation
Procedure: as §2, §1
The cylindrical specimens were positioned on a customized loading fixture to ensure that the 1.00 mm diameter loading pin aligned with the center axis of the dentin cylinder. Additionally, flat platens were used at both ends of the specimens to further ensure alignment with the testing surface. The specimens were then loaded horizontally into a universal testing machine, receiving a uniaxial load perpendicular to their long axes and parallel to the dentinal tubule orientation. A 1.00 mm diameter stainless steel plunger was used to apply downward pressure on the dentin surface at 1.0 mm/min crosshead speed. The maximal load applied to the plug at the time of dislodgement was recorded in Newtons, and the DTS was calculated using the formula
where F is the force in Newtons, D is the diameter of the cylinder, and h is the height in mm.

[5] = SEM-EDS color dot map, intensity of the metal in dentin; set-up: species or system human; details: for Unit of Intensity: EDS dot map at 1000x, 0 to 255 scale, mean ± SD; for color intensity: pilot study, mean and standard deviation
Procedure: as §2
Three specimens from each group were examined by SEM-EDS mode to observe the precipitation of metallic components on the dentin surface. All specimens were sectioned at a depth of 500 μm (exposure surface to fortifying solutions) using a diamond-coated disk under water cooling. The specimens' surfaces were then polished and sputter-coated with 10 nm gold and observed under an SEM. An EDS color dot map analysis was performed for each specimen at 1000× to evaluate the distribution of trace elements. The intensity of Mg, Zn, Mn, Sr, and Ba was measured using ImageJ software. The color maps were converted to binary, and their mean color intensity (0 to 255 scale) was recorded as a unit of intensity (UI).

[6] = Compressive strength of fortified dentin specimens after pH cycling; set-up: species or system human; details: for Compressive strength: 5 min irrigation, 3-day pH cycling, mean ± SD
Procedure: as §2, §1
The procedure for compressive strength testing was the same as for DTS testing except for the orientation of the specimens in the universal testing machine. The loads were applied uniaxially, parallel to the long axes of the specimens, and perpendicular to the dentinal tubule orientation until the specimens fractured. To calculate the compressive strength (MPa), the failure load (N) was divided by the area of the specimen in contact with the load

[7] = Residual stress of treated dentin; details: 5 min treatment with AA2P salts
Procedure: After establishing that inorganic trace minerals (IoTM) were dysregulated in dentin, Applicant aimed to examine if extrinsic supplementation could enhance dentinal mechanical properties. Specimens were treated with L-ascorbic acid 2-phosphate (AA2P) salts of IoTM as a solute carrier for the elements for 5 minutes. The following findings were observed, as described below.
Cationic substitution may lead to changes in residual stress. Stress magnitude and distribution by can be measured using XRD (Mn X-ray source, 1 mm aperture) as well as by slitting crack compliance, a destructive mechanical strain release technique, using whole dentin disk samples. In the slitting method, a rectangular sample with a strain gauge applied to the back side will be wired to the electrical discharge machine to cut through a sample to measure strain relief. Finite element analysis can be used to create the stress profile through the depth of a sample. However, the technique's accuracy is limited at the surface. In contrast, XRD is best for surface measurements with very high accuracy. Data can be acquired using a sine-squared psi method to indicate residual stress, modulus, and Poisson ratio. […] Pit depths can be measured using a drop gauge. […] The residual stress in the surface and sub-surface of dentin apatite (as deep as […]) can be determined.

[8] = 100 and 500 μm depths combined, N=20

Row | SMILES | protection against artificial caries lesions [1] | Microhardness, Mean ([2]; 100 μM depth, N=10) | Microhardness, Mean ([2]; 500 μM depth, N=10) | Microhardness, Mean [2, 8] | Solubility (weight loss) [3] | weight loss [3] | Diametral tensile strength [4] | DTS compared with the control group [4] | DTS [4] | Unit of Intensity ([5]; 500 μm depth) | color intensity [5] | Compressive strength [6] | intensity / penetration, rank among all the groups ([5]; in words, 500 μm depth) | microhardness, rank among all the groups ([2]; 100 μm depth) | microhardness, rank among all the groups ([2]; depths combined) | kind of residual stress generated [7] | compressive strength, rank among all the groups ([6]; in words)
1 | O=C1O[C@H]([C@@H](O)CO)C([O-])=C1OP(=O)([O-])[O-].O=C1O[C@H]([C@@H](O)CO)C([O-])=C1OP(=O)([O-])[O-].[Ba+2].[Ba+2].[Ba+2] [Ba] | protected the dentin lesions | 45.00 kgf/mm^2 | 60.00 kgf/mm^2 | 52.50 kgf/mm^2 | 19.03 ± 2.99 ^a % | 18.96±3.44% | 61.56 ± 3.55 ^b Mpa | significantly higher DTS than the control group | 61.96±4.47 Mpa | 5.57 ± 0.95 ^b Ui | 5.55±1.34 | 157.96 ± 18.22 ^bc Mpa | – | – | – | – | –
2 | O=C1O[C@H]([C@@H](O)CO)C([O-])=C1OP(=O)([O-])[O-].O=C1O[C@H]([C@@H](O)CO)C([O-])=C1OP(=O)([O-])[O-].[Mg+2].[Mg+2].[Mg+2] [Mg] | – | 38.10 kgf/mm^2 | 57.20 kgf/mm^2 | 47.65 kgf/mm^2 | 12.73 ± 4.92 ^a % | 12.61±5.67% | 56.93 ± 11.93 ^b Mpa | significantly higher DTS than the control group | 57.60±15.21 Mpa | 9.76 ± 1.52 ^a Ui | 9.9±2.12 | 148.97 ± 6.89 ^b Mpa | highest intensity; also recorded: highest penetration | – | – | – | –
3 | O=C1O[C@H]([C@@H](O)CO)C([O-])=C1OP(=O)([O-])[O-].O=C1O[C@H]([C@@H](O)CO)C([O-])=C1OP(=O)([O-])[O-].[Mn+2].[Mn+2].[Mn+2] [Mn] | – | 40.60 kgf/mm^2 | 58.80 kgf/mm^2 | 49.70 kgf/mm^2 | 16.69 ± 3.97 ^a % | 16.48±4.55% | 56.07 ± 9.39 ^b Mpa | significantly higher DTS than the control group | 55.80±11.56 Mpa | 6.57 ± 0.95 ^b Ui | 6.1±0.71 | 148.03 ± 9.82 ^b Mpa | – | – | – | – | –
4 | O=C1O[C@H]([C@@H](O)CO)C([O-])=C1OP(=O)([O-])[O-].O=C1O[C@H]([C@@H](O)CO)C([O-])=C1OP(=O)([O-])[O-].[Sr+2].[Sr+2].[Sr+2] [Sr] | – | 47.60 kgf/mm^2 | 59.10 kgf/mm^2 | 53.35 kgf/mm^2 | 18.53 ± 3.74 ^a % | 18.16±4.21% | 60.01 ± 2.70 ^b Mpa | significantly higher DTS than the control group | 59.99±1.91 Mpa | 6.03 ± 0.67 ^b Ui | 6.2±0.85 | 174.01 ± 11.09 ^c Mpa | – | highest | highest | compressive residual stress | highest
5 | O=C1O[C@H]([C@@H](O)CO)C([O-])=C1OP(=O)([O-])[O-].O=C1O[C@H]([C@@H](O)CO)C([O-])=C1OP(=O)([O-])[O-].[Zn+2].[Zn+2].[Zn+2] [Zn] | protected the dentin lesions | 40.30 kgf/mm^2 | 56.30 kgf/mm^2 | 48.30 kgf/mm^2 | 12.88 ± 3.39 ^a % | 12.55±3.82% | 54.97 ± 10.12 ^b Mpa | significantly higher DTS than the control group | 53.98±9.94 Mpa | 7.1 ± 1.04 ^b Ui | 7.35±1.34 | 152.40 ± 15.07 ^b Mpa | – | – | – | tensile residual stress | –
